Test results from patent publication US20250049036A1 (priority 2021, published 2025).

What was measured:
Alternaria solani = Alternaria solani (early blight of tomato/potato) mycelial radial growth on potato dextrose agar; type: cell-based; settings: 168 h, 25° C., seven days, read-out: control compared to the untreated check
Description: The compounds were dissolved in 0.3% dimethyl sulfoxide and then added to potato dextrose agar medium just prior to dispensing it into petri dishes. 5 mL medium, with the compound in the desired concentration, was dispensed into 60 mm sterile petri-plates. After solidification, each plate was seeded with a 5 mm size mycelial disc taken from the periphery of an actively growing virulent culture plate. The plates were incubated in growth chambers at 25° C. temperature and 60% relative humidity for seven days and the radial growth was measured and compared to the one of the untreated control.

Parastagonospora nodorum = Parastagonospora nodorum (PARANO) spore growth inhibition in liquid medium, 96-well microtiter plate, OD 600; type: cell-based; settings: spore suspension in PDB liquid medium, 18° C., 5-6 days, OD at 600, read-out: control compared to the untreated check
Method in brief: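 Read-out is percent growth inhibition from OD at 600 after 5-6 days at 18° C. Compounds, dissolved in DMSO, were diluted in potato dextrose broth and combined in equal volume with a 10^5 spores/ml suspension of PARANO.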

Phakopsora pachyrhizi = Phakopsora pachyrhizi test on soybean, preventive, greenhouse; type: in vivo; settings: preventive spray on soybean, inoculated one day after treatment, read-out: control (efficacy, disease severity) compared to the untreated check
Method in brief: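 Greenhouse-grown young soybean plants were sprayed with compound (2% DMSO/acetone, emulsifier in water) at the stated rate. One day later they were inoculated with 2×10^5 P. pachyrhizi inoculum and held at 22-24 °C, 80-90% relative humidity for disease development.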

Pyricularia oryzae = experiment: microbe, parasite or virus in culture; type: cell-based; settings: 168 h, read-out: control compared to the untreated check
Colletotrichum capsici = Colletotrichum capsici (anthracnose) mycelial radial growth on potato dextrose agar; type: cell-based; settings: Colletotrichum truncatum, 168 h, 25° C., seven days, read-out: control compared to the untreated check
Method in brief: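 Compounds in 0.3% DMSO were mixed into potato dextrose agar, and each plate was seeded with a 5 mm mycelial disc from an actively growing culture. Plates were incubated at 25° C and 60% relative humidity for seven days. Radial growth was compared with untreated control.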

Phytophthora infestans [1] = experiment: whole plant or invertebrate; type: in vivo, Phytophthora infestans on tomato; settings: in Solanum lycopersicum, read-out: control (efficacy, disease severity) compared to the untreated check
Botrytis cinerea [2] = experiment: Botrytis cinerea test on tomato, preventive, greenhouse; type: in vivo; settings: preventive spray on bean/chili plants (heading: tomato), inoculated one day after treatment, read-out: control (efficacy, disease severity) compared to the untreated check
Venturia Inequalis = experiment: Venturia inequalis (VENTIN) spore growth inhibition in liquid medium, 96-well microtiter plate, OD 600; type: cell-based; settings: spore suspension in PDB liquid medium, 18° C., 15-18 days, OD at 600, read-out: control compared to the untreated check
Description: Potato dextrose (PDB) liquid medium containing a VENTIN (10^5 spores/ml) spore suspension was prepared. For the inhibition assay, each test compound was solved in dimethyl sulfoxide. 100 μl of the test compound in media-solution was added to a 96-well microtiter plate, consequently, the same volume (100 μl) of spore suspension was added to the well making the final test concentrations and the treated plate was incubated at 18° C. for 15-18 days. The growth inhibition was evaluated by measuring the OD at 600. Percent inhibition was calculated with the below formula: […]

Phytophthora infestans [3] = experiment: microbe, parasite or virus in culture; type: cell-based; settings: 168 h, read-out: control compared to the untreated check
Botrytis cinerea [4] = experiment: Botrytis cinerea (gray mold) mycelial radial growth on potato dextrose agar; type: cell-based; settings: 168 h, 22° C., seven days, read-out: control compared to the untreated check
Description: The compounds were dissolved in 0.3% dimethyl sulfoxide and then added to potato dextrose agar medium just prior to dispensing it into petri dishes. 5 mL medium, with the compound in the desired concentration, was dispensed into 60 mm sterile petri-plates. After solidification, each plate was seeded with a 5 mm size mycelial disc taken from the periphery of an actively growing virulent culture plate. The plates were incubated in growth chambers at 22° C. temperature and 90% relative humidity for seven days and the radial growth was measured and compared to the one of the untreated control.

Botrytis cinerea [5] = experiment: Botrytis cinerea liq. (BOTRCI) spore growth inhibition in liquid medium, 96-well microtiter plate, OD 405 nm; type: cell-based; settings: spore suspension in YBA liquid medium, 22° C., 5-6 days, OD at 405 nm, read-out: control compared to the untreated check
Method in brief: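 Spore suspension of B. cinerea (10^4 spores/ml) in YBA liquid medium mixed 1:1 with compound diluted from DMSO. Incubated at 22° C. for 5-6 days. Growth read as OD 405 nm; percent inhibition derived from treatment, untreated-control and blank readings.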

Cn1ccc2cc(C(=O)NC(C)(C)C(C)(C)c3ccccc3)cnc21 [Compound 5, N-(2,3-dimethyl-3-phenylbutan-2-yl)-1-methyl-1H-pyrrolo[2,3-b]pyridine-5-carboxamide]
≥ 70%: inhibition of growth at 300 ppm (Alternaria solani) | inhibition of growth at 300 ppm (Parastagonospora nodorum) | pest or weed control at 500 ppm (Phakopsora pachyrhizi)

CC(c1ccccc1Cl)C(C)(C)NC(=O)c1cnc2c(ccn2C)c1 (stereo not drawn) [Compound 7, N-(3-(2-chlorophenyl)-2-methylbutan-2-yl)-1-methyl-1H-pyrrolo[2,3-b]pyridine-5-carboxamide]
≥ 70%: inhibition of growth at 300 ppm (Alternaria solani) | inhibition of growth at 300 ppm (Pyricularia oryzae) | inhibition of growth at 300 ppm (Parastagonospora nodorum)

Cn1ccc2cc(C(=O)NC3(Cc4ccccc4)CCCCC3)cnc21 [Compound 11, N-(1-benzylcyclohexyl)-1-methyl-1H-pyrrolo[2,3-b]pyridine-5-carboxamide]
≥ 70%: inhibition of growth at 300 ppm (Alternaria solani) | inhibition of growth at 300 ppm (Pyricularia oryzae) | inhibition of growth at 300 ppm (Parastagonospora nodorum) | inhibition of growth at 300 ppm (Colletotrichum capsici)

Cn1ccc2cc(C(=O)NC3(Cc4cccc(Cl)c4)CCCCC3)cnc21 [Compound 12, N-(1-(3-chlorobenzyl)cyclohexyl)-1-methyl-1H-pyrrolo[2,3-b]pyridine-5-carboxamide]
≥ 70%: inhibition of growth at 300 ppm (Alternaria solani) | inhibition of growth at 300 ppm (Pyricularia oryzae) | inhibition of growth at 300 ppm (Colletotrichum capsici)

Cc1nc2c(ccn2C)cc1C(=O)NC(C)(C)Cc1ccccc1F [Compound 38, N-(1-(2-fluorophenyl)-2-methylpropan-2-yl)-1,6-dimethyl-1H-pyrrolo[2,3-b]pyridine-5-carboxamide]
≥ 70%: pest or weed control at 500 ppm (Phytophthora infestans [1]) | pest or weed control at 500 ppm (Botrytis cinerea [2]) | inhibition of growth at 300 ppm (Pyricularia oryzae) | pest or weed control at 500 ppm (Phakopsora pachyrhizi)

Cn1ccc2cc(C(=O)NC3(Cc4ccccc4)CC3)cnc21 [Compound 39, N-(1-benzylcyclopropyl)-1-methyl-1H-pyrrolo[2,3-b]pyridine-5-carboxamide]
≥ 70%: pest or weed control at 500 ppm (Phytophthora infestans [1]) | inhibition of growth at 300 ppm (Venturia Inequalis) | inhibition of growth at 300 ppm (Pyricularia oryzae) | pest or weed control at 500 ppm (Phakopsora pachyrhizi) | inhibition of growth at 300 ppm (Colletotrichum capsici) | inhibition of growth at 300 ppm (Phytophthora infestans [3])

Cc1nc2c(ccn2C)cc1C(=O)NC(C)(C)C(C)c1ccccc1Cl (stereo not drawn) [Compound 40, N-(3-(2-chlorophenyl)-2-methylbutan-2-yl)-1,6-dimethyl-1H-pyrrolo[2,3-b]pyridine-5-carboxamide]
≥ 70%: pest or weed control at 500 ppm (Phytophthora infestans [1]) | inhibition of growth at 300 ppm (Pyricularia oryzae) | inhibition of growth at 300 ppm (Botrytis cinerea [4]) | inhibition of growth at 300 ppm (Parastagonospora nodorum) | pest or weed control at 500 ppm (Phakopsora pachyrhizi)

CC(C)(Cc1ccc(F)cc1)NC(=O)c1cnc2[nH]ccc2c1 [Compound 41, N-(1-(4-fluorophenyl)-2-methylpropan-2-yl)-1H-pyrrolo[2,3-b] pyridine-5-carboxamide]
≥ 70%: pest or weed control at 500 ppm (Phytophthora infestans [1]) | inhibition of growth at 300 ppm (Venturia Inequalis) | pest or weed control at 500 ppm (Botrytis cinerea [2]) | pest or weed control at 500 ppm (Phakopsora pachyrhizi) | inhibition of growth at 300 ppm (Phytophthora infestans [3])

Cn1ccc2cc(C(=O)NC(C)(C)Cc3ccc(Cl)c(F)c3)cnc21 [Compound 42, N-(1-(4-chloro-3-fluorophenyl)-2-methylpropan-2-yl)-1-methyl-1H-pyrrolo[2,3-b]pyridine-5-carboxamide]
≥ 70%: pest or weed control at 500 ppm (Phytophthora infestans [1]) | inhibition of growth at 300 ppm (Pyricularia oryzae) | inhibition of growth at 300 ppm (Parastagonospora nodorum) | pest or weed control at 500 ppm (Phakopsora pachyrhizi)

Cn1ccc2cc(C(=O)NC(C)(C)Cc3cccc(Br)c3)cnc21 [Compound 48, N-(1-(3-bromophenyl)-2-methylpropan-2-yl)-1-methyl-1H-pyrrolo[2,3-b]pyridine-5-carboxamide]
≥ 70%: pest or weed control at 500 ppm (Phytophthora infestans [1]) | inhibition of growth at 300 ppm (Pyricularia oryzae) | inhibition of growth at 300 ppm (Parastagonospora nodorum) | pest or weed control at 500 ppm (Phakopsora pachyrhizi)

CC(C)CC(C)(Cc1ccccc1)NC(=O)c1cnc2c(c1)c(Cl)cn2C (stereo not drawn) [Compound 52, 3-chloro-N-(2,4-dimethyl-1-phenylpentan-2-yl)-1-methyl-1H-pyrrolo[2,3-b]pyridine-5-carboxamide]
≥ 70%: pest or weed control at 500 ppm (Phytophthora infestans [1]) | inhibition of growth at 300 ppm (Venturia Inequalis) | pest or weed control at 500 ppm (Phakopsora pachyrhizi)

Cn1cc(Cl)c2cc(C(=O)NC(C)(C)Cc3ccccc3)cnc21 [Compound 53, 3-chloro-1-methyl-N-(2-methyl-1-phenylpropan-2-yl)-1H-pyrrolo[2,3-b] pyridine-5-carboxamide]
≥ 70%: pest or weed control at 500 ppm (Phytophthora infestans [1]) | inhibition of growth at 300 ppm (Venturia Inequalis) | inhibition of growth at 300 ppm (Pyricularia oryzae) | pest or weed control at 500 ppm (Phakopsora pachyrhizi)

Cn1cc(F)c2cc(C(=O)NC(C)(C)Cc3ccccc3F)cnc21 [Compound 68, 3-fluoro-N-(1-(2-fluorophenyl)-2-methylpropan-2-yl)-1-methyl-1H-pyrrolo[2,3-b]pyridine-5-carboxamide]
≥ 70%: pest or weed control at 500 ppm (Phytophthora infestans [1]) | inhibition of growth at 300 ppm (Venturia Inequalis) | pest or weed control at 500 ppm (Phakopsora pachyrhizi)

Cn1cc(F)c2cc(C(=O)NC(C)(C)Cc3ccc(Cl)c(F)c3)cnc21 [Compound 69, N-(1-(4-chloro-3-fluorophenyl)-2-methylpropan-2-yl)-3-fluoro-1-methyl-1H-pyrrolo[2,3-b]pyridine-5-carboxamide]
≥ 70%: pest or weed control at 500 ppm (Phytophthora infestans [1]) | inhibition of growth at 300 ppm (Venturia Inequalis) | inhibition of growth at 300 ppm (Pyricularia oryzae)

CC(CCc1ccccc1)NC(=O)c1cnc2c(ccn2C)c1 (stereo not drawn) [Compound 75, 1-methyl-N-(4-phenylbutan-2-yl)-1H-pyrrolo[2,3-b]pyridine-5-carboxamide]
≥ 70%: pest or weed control at 500 ppm (Phytophthora infestans [1]) | inhibition of growth at 300 ppm (Botrytis cinerea [5]) | inhibition of growth at 300 ppm (Venturia Inequalis) | pest or weed control at 500 ppm (Botrytis cinerea [2]) | inhibition of growth at 300 ppm (Botrytis cinerea [4]) | inhibition of growth at 300 ppm (Parastagonospora nodorum) | pest or weed control at 500 ppm (Phakopsora pachyrhizi) | inhibition of growth at 300 ppm (Colletotrichum capsici)

Cn1ccc2cc(C(=O)NCC3(c4ccccc4)CC3)cnc21 [Compound 79, 1-methyl-N-((1-phenylcyclopropyl)methyl)-1H-pyrrolo [2,3-b]pyridine-5-carboxamide]
≥ 70%: pest or weed control at 500 ppm (Phytophthora infestans [1]) | inhibition of growth at 300 ppm (Venturia Inequalis) | inhibition of growth at 300 ppm (Pyricularia oryzae) | inhibition of growth at 300 ppm (Parastagonospora nodorum) | inhibition of growth at 300 ppm (Phytophthora infestans [3])

Cn1cc(Cl)c2cc(C(=O)NC(C)(C)Cc3ccccc3Cl)cnc21 [Compound 83, 3-chloro-N-(1-(2-chlorophenyl)-2-methylpropan-2-yl)-1-methyl-1H-pyrrolo[2,3-b]pyridine-5-carboxamide]
≥ 70%: pest or weed control at 500 ppm (Phytophthora infestans [1]) | inhibition of growth at 300 ppm (Venturia Inequalis) | pest or weed control at 500 ppm (Botrytis cinerea [2]) | inhibition of growth at 300 ppm (Pyricularia oryzae) | pest or weed control at 500 ppm (Phakopsora pachyrhizi)
